Experimental data as given in patent publication US20150353928A1, “Genes Contributing to Survival of Cancer Cells” (Georgetown University, priority 2011, published 2015).

Columns and labels:
LCC9 cells = assay: Bortezomib concentration response, Cell Titer Blue viability; format: cell-based; conditions: 2.5 nM-2.5 μM
Experimental: (§1) LCC1, LCC9 and MCF7 cells were seeded at density so that the untreated condition was at 80% confluence on day 7 in the appropriate medium. Cells were incubated at 37° C. and 5% CO2 for […]. Twenty-four hours later, cells were treated with Bortezomib with final well concentrations ranging from 2.5 nM-2.5 μM. On the seventh day, 20 μL of 1:1 mixture of Cell Titer Blue (CTB) from Promega and Hank's Buffered Salt Solution (HBSS) was added to each well and incubated for another 4 hours before reading out the results using the EnVision Multilabel Plate Reader from PerkinElmer. Viability was calculated as a percentage of the untreated cells.

LCC1 cells = assay: as above; format: cell-based; conditions: 2.5 nM-2.5 μM
Experimental: as §1

CC(C)C[C@H](NC(=O)[C@H](Cc1ccccc1)NC(=O)c1cnccn1)B(O)O [Bortezomib]
sensitivity to bortezomib compared to MCF7 (concentration response curves) (LCC9 cells): more sensitive | sensitivity to bortezomib compared to MCF7 (concentration response curves) (LCC1 cells): more sensitive
